{"source": "paper PMC8215295", "about": "“Identification and characterization of the pyridoxal 5’-phosphate allosteric site in Escherichia coli pyridoxine 5’-phosphate oxidase” (The Journal of Biological Chemistry, 2021)", "molecules": {"B1": {"name": "Escherichia coli pyridoxine 5'-phosphate oxidase quadruple variant K72I/Y129F/R133L/H199A (enzyme, UniProt P0AFI7 1-218, looked up)", "chain": "MSDNDELQQIAHLRREYTKGGLRRRDLPADPLTLFERWLSQACEAKLADPTAMVVATVDEHGQPYQRIVLLIHYDEKGMVFYTNLGSRKAHQIENNPRVSLLFPWHTLERQVMVIGKAERLSTLEVMKFFHSLPRDSQIGAWVSKQSSRISARGILESKFLELKQKFQQGEVPLPSFWGGFRVSLEQIEFWQGGEHRLADRFLYQRENDAWKIDRLAP", "notes": "pyridoxine 5'-phosphate oxidase (PNPO, EC 1.4.3.5) of Escherichia coli, encoded by pdxH; the entire polypeptide chain is made by 218 residues; active site impaired by four substitutions; Gene cloned in pET22b(+) between NdeI and NcoI; no tag is mentioned; Modelled residues: 7-218 in 6YLZ; 17-126 and 176-218 (chain A), 14-166 and 170-218 (chain B) in 6YMH; also called ePNPOqm; source: E. coli …"}}, "key": {"ePNPO": {"system": "ePNPO", "conditions": "cited from earlier work"}, "[1]": {"biological_target": "T1, ePNPO N84A/K145A/F177A variant (Escherichia coli, UniProt P0AFI7, F177A/K145A/N84A)", "T1 construct": "the entire polypeptide chain is made by 218 residues; made in house; host or cells: E. coli MDS00, pET22b(+)", "T1 sequence (P0AFI7 whole entry N84A/K145A/F177A)": "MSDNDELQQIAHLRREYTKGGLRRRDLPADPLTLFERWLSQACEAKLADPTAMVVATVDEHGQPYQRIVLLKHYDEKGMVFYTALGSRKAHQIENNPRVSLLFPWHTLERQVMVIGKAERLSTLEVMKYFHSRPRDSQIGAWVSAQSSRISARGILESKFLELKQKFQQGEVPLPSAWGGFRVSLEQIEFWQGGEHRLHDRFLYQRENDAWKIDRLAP", "test": "Fluorimetric PLP binding equilibrium", "procedure": "(§1) Binding of PLP to ePNPO variants was also analyzed using the spectrofluorometric method previously employed for the wildtype enzyme ([5]), which is based on the resulting increase of FMN fluorescence emission."}, "[2]": {"biological_target": "T2, ePNPO K145A/F177A variant (Escherichia coli, UniProt P0AFI7, F177A/K145A)", "T2 construct": "the entire polypeptide chain is made by 218 residues; made in house; host or cells: E. coli MDS00, pET22b(+)", "T2 sequence (P0AFI7 whole entry K145A/F177A)": "as the sequence (P0AFI7 whole entry N84A/K145A/F177A) above, with A84N counted along it", "test": "Fluorimetric PLP binding equilibrium", "procedure": "as §1"}, "[3]": {"biological_target": "T3, ePNPO N84W/K145A/F177A variant (Escherichia coli, UniProt P0AFI7, F177A/K145A/N84W)", "T3 construct": "the entire polypeptide chain is made by 218 residues; made in house; host or cells: E. coli MDS00, pET22b(+)", "T3 sequence (P0AFI7 whole entry N84W/K145A/F177A)": "as the sequence (P0AFI7 whole entry N84A/K145A/F177A) above, with A84W counted along it", "test": "Fluorimetric PLP binding equilibrium", "procedure": "as §1"}, "ePNPO R23L/R24L variant [4]": {"biological_target": "T4, ePNPO R23L/R24L variant (Escherichia coli, UniProt P0AFI7, R23L/R24L)", "T4 sequence (P0AFI7 whole entry R23L/R24L)": "as the sequence (P0AFI7 whole entry N84A/K145A/F177A) above, with R23L, R24L, A84N, A145K, A177F counted along it", "test": "PLP retention after SEC", "conditions": "100 μM enzyme + equimolar PLP, with respect to protein subunits"}, "ePNPO R23L/R24L variant [5]": {"biological_target": "T4, ePNPO R23L/R24L variant", "test": "Fluorimetric PLP binding equilibrium"}, "wildtype ePNPO [6]": {"biological_target": "T5, wildtype ePNPO (Escherichia coli, UniProt P0AFI7)", "T5 construct": "the entire polypeptide chain is made by 218 residues; made in house; host or cells: E. coli MDS00, pET22b(+)", "conditions": "cited from earlier work"}, "[7]": {"system": "human pyridoxine 5’-phosphate oxidase", "set-up": "method as in PMID 32788630", "conditions": "human PNPO; parabolic inhibition model; cited from earlier work"}, "wildtype ePNPO [8]": {"biological_target": "T5, wildtype ePNPO", "conditions": "read-out: KD^PLP, fluorimetric PLP binding equilibrium; cited from earlier work"}, "ePNPO R23L variant [9]": {"biological_target": "T6, ePNPO R23L variant (Escherichia coli, UniProt P0AFI7, R23L)", "T6 sequence (P0AFI7 whole entry R23L)": "as the sequence (P0AFI7 whole entry N84A/K145A/F177A) above, with R23L, A84N, A145K, A177F counted along it", "test": "PLP retention after SEC", "conditions": "100 μM enzyme + equimolar PLP, with respect to protein subunits"}, "[10]": {"biological_target": "T1, ePNPO N84A/K145A/F177A variant", "test": "PLP retention after SEC", "assay_type": "binding", "conditions": "100 μM enzyme + equimolar PLP, with respect to protein subunits", "procedure": "(§2) It is known by previous experiments on wildtype ePNPO that, when the protein is incubated with PLP and then passed through an SEC column, it retains PLP tightly bound to it ([7]). […] All ePNPO variants (100 μM) were incubated with an equimolar amount of PLP. Then, they were passed through an SEC column and the stoichiometry of protein-bound PLP with respect to protein subunits was determined. The percentage of protein-bound PLP was 72 ± 8, 73 ± 10, and 73 ± 19, with the K145A/F177A, N84A/K145A/F177A and N84W/K145A/F177A ePNPO variants, respectively (Table 1)."}, "[11]": {"biological_target": "T2, ePNPO K145A/F177A variant", "test": "PLP retention after SEC", "assay_type": "binding", "conditions": "100 μM enzyme + equimolar PLP, with respect to protein subunits", "procedure": "as §2"}, "[12]": {"biological_target": "T3, ePNPO N84W/K145A/F177A variant", "test": "PLP retention after SEC", "assay_type": "binding", "conditions": "100 μM enzyme + equimolar PLP, with respect to protein subunits", "procedure": "as §2"}, "wildtype ePNPO [13]": {"biological_target": "T5, wildtype ePNPO", "test": "PLP retention after SEC", "assay_type": "binding", "conditions": "100 μM enzyme + equimolar PLP, with respect to protein subunits", "procedure": "as §2"}, "ePNPO R23L/R24L variant [14]": {"biological_target": "T4, ePNPO R23L/R24L variant", "test": "biochemical", "assay_type": "biochemical", "set-up": "the entire polypeptide chain is made by 218 residues; made in house; host or cells: E. coli MDS00, pET22b(+)", "description": "Initial velocity data obtained with all variant forms were fitted to the Michaelis–Menten equation in order to obtain apparent VMAX and KM values as a function of PLP concentration.\nFigure 7 Kinetic analysis of PLP inhibition with Arg-cage variants. […] Initial velocity measurements shown in the left panels are the average ± standard deviation of three independent measurements. Saturation curves were fitted to the Michaelis–Menten equation, obtaining apparent VMAX and KM values as a function of PLP concentration. These are represented as 1/VMAX (blue symbols) and KM/VMAX (red symbols) in the right panels, in order to facilitate the interpretation of the PLP inhibition mechanism from the shape of graphs, which correspond to the classic secondary plots of the Y-intercept and slope derived from Lineweaver–Burk plots. As detailed in the Experimental Procedures section, initial velocity data and 1/VMAX and KM/VMAX values of each data set were globally fitted to Equations (3), (4), (5), obtaining the continuous lines shown in the graphs and the parameter values shown in Table 3.\nIn order to analyze the above-mentioned kinetic data, a general inhibition model was considered (Fig. 8A), in which PLP binds at both the active and allosteric sites. […] Therefore, the dissociation constant of the substrate binding equilibrium may be assumed to correspond to the Michaelis–Menten constant (KM) derived from steady-state kinetic measurements. Equations describing the dependence of initial velocity, 1/VMAX, and KM/VMAX on substrate and PLP concentration were derived on the basis of these assumptions (Equations (3), (4), (5)). Using these equations, initial velocity data as a function of substrate concentration, obtained at all different fixed PLP concentrations, were globally fit together with the previously obtained values of apparent 1/VMAX and KM/VMAX as a function of PLP concentration.\nInhibition kinetics were measured in 50 mM Na-Hepes pH 7.6. […] All saturation curves obtained by varying PNP at a fixed PLP concentration were independently analyzed using the Michaelis–Menten equation, obtaining apparent VMAX and apparent KM values, which were then used to calculate 1/appVMAX and appKM/appVMAX as a function of PLP concentration."}, "ePNPO R23L variant [15]": {"biological_target": "T6, ePNPO R23L variant", "test": "Fluorimetric PLP binding equilibrium"}, "[16]": {"system": "ePNPO quadruple variant (K72I/Y129F/R133L/H199A)", "conditions": "ePNPO quadruple variant with impaired active site; cited from earlier work"}, "R23L/R24L ePNPO": {"biological_target": "R23L/R24L ePNPO (Escherichia coli, UniProt P0AFI7, R23L/R24L)", "sequence (P0AFI7 whole entry R23L/R24L)": "as the sequence (P0AFI7 whole entry N84A/K145A/F177A) above, with R23L, R24L, A84N, A145K, A177F counted along it", "test": "PLP binding stoichiometry, fluorimetric titration", "conditions": "titration of 2, 4 and 8 μM ePNPO with PLP"}, "wildtype ePNPO [17]": {"biological_target": "T5, wildtype ePNPO", "conditions": "in solution; cited from earlier work"}, "[18]": {"biological_target": "the molecule itself", "test": "crystal structure; ePNPOqm without PLP, space group P3(1) 2 1, 1.56 Å; one subunit in the asymmetric unit, dimer generated by the crystallographic 2-fold axis; hanging drop, (NH4)2SO4, 298 K"}}, "note": "Several values for one entry are separate records, joined by “and”; a condition that tells them apart may be missing. Identical values can stand only once. Entries after “also recorded” stand apart in the source; their conditions may differ.", "data": [{"molecule": "Cc1ncc(COP(=O)(O)O)c(C=O)c1O", "note": "[PLP, Pyridoxal 5’-phosphate]", "values": [{"measurement": "kOFF of PLP binding", "setting": "ePNPO", "value": 3.2, "unit": "s⁻¹"}, {"measurement": "kON of PLP binding", "setting": "ePNPO", "value": "1.13e+07", "unit": "M⁻¹ s⁻¹"}, {"measurement": "Kd", "setting": "[1]", "value": "360 ± 50", "unit": "nM"}, {"measurement": "Kd", "setting": "[2]", "value": "470 ± 60", "unit": "nM"}, {"measurement": "Kd", "setting": "[3]", "value": "330 ± 70", "unit": "nM"}, {"measurement": "PLP (%) protein-bound PLP retained after SEC", "setting": "ePNPO R23L/R24L variant [4]", "value": "30 ± 8", "unit": "%"}, {"measurement": "Kd", "setting": "ePNPO R23L/R24L variant [5]", "value": "1000 ± 90", "unit": "nM"}, {"measurement": "αKI (PLP binding at allosteric site of ES complex)", "setting": "wildtype ePNPO [6]; WT, determined according to Figure 2A model", "value": "7.13 ± 0.52", "unit": "µM"}, {"measurement": "Ki", "setting": "wildtype ePNPO [6]; read-out: KI (PLP binding at the allosteric site), WT, determined according to Figure 2A model", "value": "590 ± 700", "unit": "nM"}, {"measurement": "type of PLP inhibition", "setting": "wildtype ePNPO [6]; wildtype ePNPO", "value": "linear mixed-type inhibition"}, {"measurement": "α value (allosteric coupling)", "setting": "[7]", "value": "about 3"}, {"measurement": "β coefficient (reduction of kCAT of PES complex)", "setting": "[7]", "value": 0.15}, {"measurement": "Kd", "setting": "wildtype ePNPO [8]", "value": 150, "unit": "nM"}, {"measurement": "PLP (%) protein-bound PLP retained after SEC", "setting": "ePNPO R23L variant [9]", "value": "38 ± 11", "unit": "%"}, {"measurement": "PLP (%) protein-bound PLP retained after SEC", "setting": "[10]", "value": "73 ± 10", "unit": "%"}, {"measurement": "PLP (%) protein-bound PLP retained after SEC", "setting": "[11]", "value": "72 ± 8", "unit": "%"}, {"measurement": "PLP (%) protein-bound PLP retained after SEC", "setting": "[12]", "value": "73 ± 19", "unit": "%"}, {"measurement": "PLP (%) protein-bound PLP retained after SEC", "setting": "wildtype ePNPO [13]", "value": "70% and 69 ± 19%"}, {"measurement": "α (allosteric coupling coefficient)", "setting": "ePNPO R23L/R24L variant [14]", "value": 6.6}, {"measurement": "γ factor (PLP active site / allosteric site coupling)", "setting": "ePNPO R23L/R24L variant [14]", "value": 0.31}, {"measurement": "type of PLP inhibition", "setting": "ePNPO R23L/R24L variant [14]; Hepes buffer", "value": "parabolic inhibition"}, {"measurement": "Ki", "setting": "ePNPO R23L/R24L variant [14]; KI (PLP binding at the allosteric site), global fit (Fig. 8A model)", "value": "820 ± 20", "unit": "nM"}, {"measurement": "Ki", "setting": "ePNPO R23L/R24L variant [14]; KX (PLP binding at the active site), global fit (Fig. 8A model)", "value": "6580 ± 620", "unit": "nM"}, {"measurement": "αKI (PLP binding at allosteric site of ES complex)", "setting": "ePNPO R23L/R24L variant [14]; global fit (Fig. 8A model)", "value": "5.39 ± 1.14", "unit": "µM"}, {"measurement": "β (coefficient reducing kCAT of PES complex)", "setting": "ePNPO R23L/R24L variant [14]; global fit (Fig. 8A model)", "value": "0.42 and 0.42 ± 0.05"}, {"measurement": "Ki", "setting": "ePNPO R23L/R24L variant [14]; γKX (PLP binding at active site of PE complex), global fit (Fig. 8A model)", "value": "2050 ± 60", "unit": "nM"}, {"measurement": "Kd", "setting": "ePNPO R23L variant [15]", "value": "580 ± 120", "unit": "nM"}, {"measurement": "stoichiometry of PLP binding", "setting": "[16]", "value": "two PLP molecules per dimer"}, {"measurement": "PLP binding stoichiometry", "setting": "R23L/R24L ePNPO", "value": "two molecules of PLP per protein subunit; also recorded: four PLP molecules per enzyme dimer"}, {"measurement": "stoichiometry of PLP binding to the allosteric site", "setting": "wildtype ePNPO [17]", "value": "one PLP molecule per protein dimer"}]}, {"molecule": "B1", "values": [{"measurement": "stoichiometry N", "setting": "[18]", "value": 2}]}]}
